From article PMC6335354, “Chitosan Grafted With β-Cyclodextrin: Synthesis, Characterization, Antimicrobial Activity, and Role as Absorbefacient and Solubilizer” (Frontiers in Chemistry, 2019)
Values after ≈ are worked out from the molar mass of the structure shown. Structures can show the parent of a compound that is named as a salt. Where two headings read alike, the source gives them in different places.

How the values were obtained:
[1] = tested on: S. xylosus; assay: Uptake of doxorubicin hydrochloride by flow cytometry (FCS); format: cell-based, Staphylococcus xylosus; conditions: 50 μmol/L doxorubicin hydrochloride, CD-g-CS 0.5, 2, 5 mg/mL, 1 h, 37°C
Method: The cultured S. xylosus in the logarithmic phase were mixed with CD-g-CS (5, 2, or 0.5 mg/mL) containing 50 μmol/L doxorubicin hydrochloride. The mixtures were incubated at 37°C for 1 h. Subsequently, the S. xylosus solutions were centrifuged, washed three times with PBS (pH = 7.2), and resuspended in 500 μL PBS. For each sample, S. xylosus was sorted using a Flow Cytometry System (FCS). S. xylosus treated with only doxorubicin hydrochloride served as a control.

[2] = tested on: S. xylosus; assay: Uptake of doxorubicin hydrochloride by CLSM; format: cell-based, Staphylococcus xylosus; conditions: 50 μmol/L doxorubicin hydrochloride, 2 mg/mL CD-g-CS, 30 min, 1 and 3 h
Method: Cultured S. xylosus in the logarithmic phase was mixed with 2 mg/mL CD-g-CS containing 50 μmol/L doxorubicin hydrochloride. The mixtures were incubated at 37°C for 30 min, 1 or 3 h. The mixtures of S. xylosus were then centrifuged, washed three times, and re-suspended in 500 μL PBS (pH = 7.2). Each sample with S. xylosus was placed on a glass slide and observed by confocal laser scanning microscopy (CLSM). S. xylosus treated with only doxorubicin hydrochloride for 30 min, 1 or 3 h served as the control.

[3] = Aqueous solubility of sulfonamides (UV-Vis); conditions: thermodynamic from solid
Method: Aqueous solubility measurements were conducted according to the method of Wang and Wang ([2000]). […] The mixture was agitated until reaching equilibrium with water in the equilibrium cell and then kept for 30 min. A known amount of the upper layer of the mixture was removed from the equilibrium cell and diluted with distilled water. The calibration curve established by ultraviolet–visible spectrophotometry (UV–Vis) was used to determine the concentration of the solution.

[4] = physchem; conditions: for solubility at 2 h: 25 °C, aqueous with cosolvent or surfactant or cyclodextrin, thermodynamic from solid, solubility with CD-g-CS
Method: Acetic acid [1 mL, 1 % (v/v)] was used to dissolve 10 mg of CD-g-CS, and the pH of the solution was adjusted to be similar to that of the distilled water. […] A vortex mixer was used to mix the suspension followed by sonication for 20 min. The mixture was then stirred for 2 h at 25°C followed by the centrifugation of the suspension at 8,000 r/min for 10 min. The supernatant was filtered using a membrane with 0.45-μm pore size.

[5] = added 6 μg/mL (sulfamethoxazole 8 μg/mL)
Method: The stability test was performed by keeping the samples for 0h, 1h, 2h, 4h, 6h, 8h, 24h at room temperature before analysis. […] S2.

| solubility ([3]; distilled water) | solubility at 2 h [4] | Measured concentration ([5]; 0h at room temperature) | Measured concentration ([5]; 1h at room temperature) | Measured concentration ([5]; 2h at room temperature) | Measured concentration ([5]; 4h at room temperature) | Measured concentration ([5]; 6h at room temperature) | Measured concentration ([5]; 8h at room temperature) | Measured concentration ([5]; 24h at room temperature) | solubility ([3]; water) | solubility at 2 h ([4]; 10 mg/mL CD-g-CS solution, with 10 mg/mL CD-g-CS (QCD = 0.6 × 10^2 μmol/g)) | solubility at 2 h ([4]; 10 mg/mL CD-g-CS solution, with 10 mg/mL CD-g-CS (QCD = 0.643 × 10^3 μmol/g)) | solubility enhancement compared to the aqueous solution ([4]; with 10 mg/mL CD-g-CS (QCD = 0.6 × 10^2 μmol/g)) | solubility enhancement compared to the aqueous solution ([4]; with 10 mg/mL CD-g-CS (QCD = 0.643 × 10^3 μmol/g)) | SMILES | uptake of doxorubicin hydrochloride (fluorescence intensity, FCS) [1] | uptake of doxorubicin hydrochloride (fluorescence intensity, CLSM) [2] |
| --- | --- | --- | --- | --- | --- | --- | --- | --- | --- | --- | --- | --- | --- | --- | --- | --- |
|  |  |  |  |  |  |  |  |  |  |  |  |  |  | COc1cccc2c1C(=O)c1c(O)c3c(c(O)c1C2=O)C[C@@](O)(C(=O)CO)C[C@@H]3O[C@H]1C[C@H](N)[C@H](O)[C@H](C)O1 [doxorubicin hydrochloride] | very low | very weak |
| 69 ± 1.59 µg/mL (≈ 246 µM) | 283 ± 13 µg/mL (≈ 1010 µM) | 6.09 ± 0.060 µg/mL | 6.09 ± 0.026 µg/mL | 5.93 ± 0.021 µg/mL | 6.12 ± 0.018 µg/mL | 5.88 ± 0.018 µg/mL | 6.12 ± 0.046 µg/mL | 6.13 ± 0.015 µg/mL |  |  |  |  |  | COc1cc(NS(=O)(=O)c2ccc(N)cc2)ncn1 [sulfamonomethoxine] |  |  |
|  |  | 5.98 ± 0.078 µg/mL | 6.04 ± 0.058 µg/mL | 6.13 ± 0.013 µg/mL | 5.89 ± 0.047 µg/mL | 5.95 ± 0.055 µg/mL | 6.14 ± 0.043 µg/mL | 6.02 ± 0.054 µg/mL | 26 ± 1.68 µg/mL (≈ 104 µM) | 147 ± 7.05 µg/mL (≈ 587 µM) | 236 ± 4.25 µg/mL (≈ 943 µM) | approximately 5.6 times | 9.1 times | Nc1ccc(S(=O)(=O)Nc2ncccn2)cc1 [sulfadiazine] |  |  |
